Results on 14 compounds are retold here after ChEMBL document CHEMBL3882734, “Therapeutic compounds” (2010).

One may read the EC50 as the concentration that produces a half-maximal response. Usually Ki stands for the dissociation constant of the complex between target and ligand, obtained from inhibition or displacement.

Assay [1] addresses T1, Prostaglandin E2 receptor EP2 subtype (Homo sapiens, UniProt P43116). The assay is described as follows: Agonist activity at human recombinant EP2 receptor expressed in HEK293 cells assessed as effect on calcium accumulation by Fluo-4 AM dye based FLIPR assay. The class given is functional, cell-based.
In assay [2] the target is T1, Prostaglandin E2 receptor EP2 subtype. The assay is described as follows: Displacement of [3H]PGE2 from human EP2 receptor expressed in HEK293 cells at pH 7.3 membranes incubated for 60 mins. It counts as cell-based. For orientation: Loss of bound radioactivity is the signal in a displacement assay; it reports binding, not function.
Assay [3] has as its system Canis familiaris. Briefly: Effect on ocular surface hyperemia in Beagle dog assessed as maximum ocular surface hyperemia score assigned value at 0.1% administered topically to one eye immediately after first intraocular pressure reading by pneumatonometry. It counts as functional, Canis lupus familiaris.
For assay [4], the system named is Rhesus monkey. Briefly: Reduction in intraocular pressure in monkey assessed as maximal change in intraocular pressure at 0.1% administered topically to one eye immediately after first intraocular pressure reading by pneumatonometry. It counts as functional, Macaca mulatta.
Assay [5] deals with Rhesus monkey. The assay is described as follows: Reduction in intraocular pressure in monkey assessed as maximal change in intraocular pressure at 0.3% administered topically to one eye immediately after first intraocular pressure reading by pneumatonometry. It counts as functional, Macaca mulatta.
In assay [6] the test system is Canis familiaris. Briefly: Effect on ocular surface hyperemia in Beagle dog assessed as maximum ocular surface hyperemia score assigned value at 0.3% administered topically to one eye immediately after first intraocular pressure reading by pneumatonometry. It counts as functional, Canis lupus familiaris.
Assay [7] has as its system Rhesus monkey. The assay is described as follows: Reduction in intraocular pressure in monkey assessed as maximal change in intraocular pressure at 0.01% administered topically to one eye immediately after first intraocular pressure reading by pneumatonometry. The class given is functional, Macaca mulatta.
In assay [8] the target is Prostaglandin E2 receptor EP4 subtype (Homo sapiens, UniProt P35408). Briefly: Displacement of [3H]PGE2 from human EP4 receptor expressed in HEK293 cells membranes incubated for 60 mins. The class given is cell membranes.
Prostaglandin E2 receptor EP4 subtype, sequence (P35408 whole entry): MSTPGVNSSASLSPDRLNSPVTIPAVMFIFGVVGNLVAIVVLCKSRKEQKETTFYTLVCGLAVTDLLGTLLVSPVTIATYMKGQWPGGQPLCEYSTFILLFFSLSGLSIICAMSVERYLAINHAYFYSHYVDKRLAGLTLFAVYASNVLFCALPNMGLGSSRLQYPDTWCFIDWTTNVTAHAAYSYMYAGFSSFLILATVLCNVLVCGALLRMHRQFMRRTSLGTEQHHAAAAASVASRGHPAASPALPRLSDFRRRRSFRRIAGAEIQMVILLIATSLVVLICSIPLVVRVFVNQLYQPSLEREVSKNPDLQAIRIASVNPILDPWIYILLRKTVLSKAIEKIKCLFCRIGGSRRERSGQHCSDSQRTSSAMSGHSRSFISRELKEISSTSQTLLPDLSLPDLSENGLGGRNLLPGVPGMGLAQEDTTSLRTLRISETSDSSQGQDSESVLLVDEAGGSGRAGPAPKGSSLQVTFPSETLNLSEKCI

T1 sequence (P43116 whole entry): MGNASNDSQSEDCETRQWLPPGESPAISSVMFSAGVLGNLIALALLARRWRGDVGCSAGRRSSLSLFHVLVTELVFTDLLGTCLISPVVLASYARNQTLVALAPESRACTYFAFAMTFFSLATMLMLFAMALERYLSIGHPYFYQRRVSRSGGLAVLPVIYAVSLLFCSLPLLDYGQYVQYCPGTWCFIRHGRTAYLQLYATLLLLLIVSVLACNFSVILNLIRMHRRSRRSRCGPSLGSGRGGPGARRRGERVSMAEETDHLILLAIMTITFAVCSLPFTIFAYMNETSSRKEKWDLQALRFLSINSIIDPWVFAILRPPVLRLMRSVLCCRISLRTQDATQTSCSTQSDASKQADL

As to `CCCCCC(O)c1ccc([C@H]2CC[C@@H](Cl)[C@@H]2CCCCCCC(=O)OC)cc1` (stereo partly specified), in assay [1] (hek293), the EC50 was determined as 50 µM. This compound came in with a Ki in assay [2] (hek293) of 50 µM.
For the compound `O=C(O)CCC/C=C\C[C@@H]1[C@@H](c2ccc(C(O)C3CCCCC3)cc2)[C@H](O)C[C@H]1Cl` (stereo partly specified), the Activity_index in assay [3] turned out to be 1.
Regarding `CCCCCC(O)c1ccc([C@@H]2[C@@H](C/C=C\CCCC(=O)OC(C)C)[C@H](Cl)C[C@H]2Cl)cc1` (stereo partly specified), in assay [4], the Activity amounted to 19 mmHg.
Turning to `CCCCCC(O)c1cccc([C@H]2CCC(=O)[C@@H]2CCCCCCC(=O)OC)c1` (stereo partly specified), in assay [1] (hek293), the EC50 was found to be 50 µM. Moreover, the affinity in assay [2] (hek293) corresponds to a Ki of 50 µM.
With `O=C(O)CCC/C=C\C[C@@H]1[C@@H](c2ccc3c(c2)CCC3O)[C@H](O)C[C@H]1Cl` (stereo partly specified), the Activity in assay [5] turned out to be 7 mmHg. Also, the Activity_index in assay [6] is recorded as 1.
In the case of `CC(C)OC(=O)CCC/C=C\C[C@@H]1[C@@H](c2ccc(C(O)C3CCCCC3)cc2)[C@H](O)C[C@H]1Cl` (stereo partly specified), in assay [7], the Activity turned out to be 5 mmHg.
For `CCCCCC(=O)c1ccc([C@@H]2[C@@H](C/C=C\CCCC(=O)OC(C)C)[C@H](Cl)C[C@H]2O)cc1`, in assay [4], the Activity is reported as 20 mmHg.
For `CCCCCC(=O)c1ccc([C@@H]2[C@@H](C/C=C\CCCC(=O)O)[C@H](Cl)C[C@H]2O)cc1`, in assay [4], the Activity is given as 31 mmHg.
As to `CCCCCC(O)c1ccc([C@H]2CCC=C2CCCCCCC(=O)OC)cc1` (stereo partly specified), the EC50 in assay [1] (hek293) turned out to be 50 µM. For the same compound, the affinity in assay [2] (hek293) corresponds to a Ki of 50 µM.
As for `CCCCCC(O)c1ccc([C@H]2CC[C@@H](F)[C@@H]2CCCCCCC(=O)OC)cc1` (stereo partly specified), the EC50 in assay [1] (hek293) was determined as 50 µM. This compound had a Ki in assay [2] (hek293) of 50 µM.
Consider `CCCCCC(=O)c1ccc([C@H]2[C@H](O)CC(=O)[C@@H]2C/C=C\CCCC(=O)O)cc1`, for which the affinity in assay [8] corresponds to a Ki of 2.81 µM. The EC50 in assay [1] stood at 0.031 µM.
For `CC(C)OC(=O)CCCCCC[C@@H]1[C@@H](c2ccc(C(C)(C)C)cc2)[C@H](O)C[C@H]1Cl`, the Activity in assay [7] worked out at 8 mmHg.
In the case of `CCCCCC(O)c1ccc([C@H]2CC[C@@H](Cl)[C@@H]2CCCCCCCO)cc1` (stereo partly specified), in assay [1], the EC50 came to 50 µM. The compound further gave a Ki in assay [2] of 50 µM.
In the case of `CC(C)OC(=O)CCC/C=C\C[C@@H]1[C@@H](c2ccc(C(C)(C)CO)cc2)[C@H](O)C[C@H]1Cl`, the Activity in assay [4] was found to be 6 mmHg.
